{
  "source": "patent US10774122B2",
  "about": "“ERG targeted therapy” (The Regents of the University of Michigan, priority 2017, dated 2020)",
  "key": {"[1]": {"test_system": "ERG targets such as TDRD1, ARHGDIB, NDRG1 and CACNA1D", "design": "species or system mice", "conditions": "mouse, in vivo", "protocol": "Total RNA was isolated from VCaP cells and tumors using Qiazol following the manufacturer's protocol (Qiagen). Quantitative PCR (QPCR) was performed using SYBR Green dye on an Applied Biosystems 7300 Real Time PCR system (Applied Biosystems) as described (Tomlins et al., 2005). Briefly, 2 μg of total RNA was reverse transcribed into cDNA using SuperScript III (Invitrogen) in the presence of random primers (Invitrogen). All reactions were performed in triplicate with SYBR Green Master Mix (Applied Biosystems) and 25 ng of forward and reverse primer according to the manufacturer's recommended thermocycling conditions, and then subjected to melt curve analysis. Threshold levels for each experiment were set during the exponential phase of the QPCR reaction using Sequence Detection Software version 1.2.2 (Applied Biosystems). The relative quantity of the target gene was calculated for each sample using the ΔΔCt method by the comparing mean Ct of the gene to the average Ct of the housekeeping gene, […] (Livak and Schmittgen, 2001). All oligonucleotide primers were synthesized by Integrated DNA Technologies (Coralville, Iowa). The primer sequences for the transcript analyzed were previously described (Brenner et al., 2011; supra)."}, "[2]": {"test_system": "PC3 (ERG fusion-negative) xenografts", "experiment": "PC3 xenograft mouse model, tumor growth", "conditions": "25 mg/kg, compared to mutant peptidomimetic", "method": "(§1) Athymic Nude-Foxnlnu male mice were procured from Harlan Laboratories, Inc (Indianapolis, Ind.). All procedures involving mice were approved by the University Committee on Use and Care of Animals (UCUCA) at the University of Michigan and conformed to their relevant regulatory standards. […] Statistical significance for Kaplan-Meier analysis was determined by the log-rank (Mantel-Cox) test.\nAthymic Nude-Foxnlnu male mice were procured from Harlan Laboratories, Inc. (Indianapolis, Ind.). VCaP (2×10^6 cells) or PC3 (5×10^5 cells) were resuspended in 100 μl of saline with 50% Matrigel (BD Biosciences, Becton Drive, NJ) and implanted subcutaneously into the flank regions on both sides of the mice. Mice were anesthetized using a cocktail of xylazine (80-120 mg/kg, IP) and ketamine (10 mg/kg, IP) for chemical restraint before tumor cells implantation. For short term assays, all tumors were staged for three weeks before starting peptidomimetic treatment. […]\nTumor growth was recorded every three days using digital calipers and tumor volumes were calculated using the formula (π/6) (L×W2), where L=length of tumor and W=width. Body weight was monitored weekly over the course of the study. […] Statistical significance for Kaplan-Meier analysis was determined by the log-rank (Mantel-Cox) test. […]"}, "VCaP cells [3]": {"test_system": "VCaP cells", "assay_type": "cell-based", "protocol": "The samples were treated with SDS loading buffer supplied with 10 mM DTT for 5 min at 85° C. The proteins were alkylated by adding iodoacetamide to the final concentration of 15 mM. The samples were subjected to SDS-PAGE and the whole lanes were cut out and digested with trypsin in-gel for 2 hours. The resulting peptides were extracted, dried and resuspended in 0.1% formic acid with 5% acetonitrile prior to loading onto a trap EASY-column (Thermo Scientific) coupled to an in-house made nano HPLC column (20 cm×75 um) packed with LUNA C18 media. Analysis was performed on Velos Pro mass spectrometer (Thermo Scientific) operated in data-dependent mode using 90-min gradients in EASY-LC system (Proxeon) with 95% water, 5% acetonitrile (ACN), 0.1% formic acid (FA) (solvent A), and 95% ACN, 5% water, 0.1% FA (solvent B) at a flow rate of 220 nl/min. […]\nThe resulting spectrum files were transformed into MGF format by MSConvert software and interrogated by MASCOT 2.4 search engine using human UniProt database version 15 concatenated with reverse sequences for estimation of false discovery rate (FDR) and with a list of common contaminants. […] The peptide FDR was calculated as 2×(decoy_hits)/(target+decoy hits). Spectral counts for all detected proteins were assembled using an in-house written Python script. […]"}, "VCaP cells [4]": {"test_system": "VCaP cells", "design": "species or system chicken embryo", "conditions": "in vivo, 25 mg/kg", "protocol": "The CAM assays were performed as described previously (Brenner et al., 2011; supra). Briefly, fertilized eggs were incubated in a rotary humidified incubator at 38° C. for 10 days. First the CAM was released by applying mild pressure to the hole over the air sac and cutting a square 1 cm^2 window encompassing a second hole near the allantoic vein. Then cultured VCaP cells that stably express Cherry Red and pre-treated with peptidomimetics as indicated were detached by trypsinization and re-suspended in complete medium and 2×10^6 cells were implanted adjacent to the mesenchyme in each egg. The windows were subsequently sealed and the eggs were returned to a stationary incubator. For invasion and intravasation experiments, implanted eggs were treated with 25 mg/kg body weight of the peptidomimetics 6 hrs after inoculation and both the upper and lower CAM were isolated after 72 hr. Invasive cells were processed and stained for chicken collagen IV as previously described (Brenner et al., 2011; supra). […] The embryonic lungs were harvested and analyzed for the presence of tumor cells by quantitative human alu-specific PCR. […] Quantification of human cells in the extracted DNA was carried out as described (van der Horst et al., Biotechniques 37, 940-942, 944, 946 2004). Fluorogenic TaqMan qPCR probes were used as described above, and DNA copy numbers were quantified."}, "ERG protein": {"target": "ERG protein (Homo sapiens, UniProt P11308)", "conditions": "mouse, in vivo", "method": "VCaP cells were seeded in 6-well plates at 0.5×10^6 cells/ml and after allowing cells to attach, cells were harvested and homogenized in NP40 lysis buffer (Sigma) containing a complete protease inhibitor cocktail (Roche). Ten micrograms of each protein extract was boiled in SDS sample buffer, size fractionated by SDS-PAGE, and transferred onto a PVDF membrane (GE Healthcare). […] Following three washes in TBS-T, the blots were incubated with horseradish peroxidase conjugated secondary antibody and the signals visualized by enhanced chemiluminescence system according to manufacturer's instructions (GE Healthcare).\n(§2) Cell pellets or tumors treated with or without the peptidomimetics were lysed in cell lysis buffer (20 mM MOPS, pH 7.0, 2 mM EGTA, 5 mM EDTA, 30 mM sodium fluoride, 60 mM β-glycerophosphate, 20 mM sodium pyrophosphate, 1 mM sodium orthovanadate, 1% Triton X-100, 1 mM DTT, protease inhibitor cocktail (Roche)). Cell lysates (0.5-1.0 mg) were pre-cleaned with protein A/G agarose beads (Santa Cruz) by incubation for 1 hour with shaking at 4° C. followed by centrifugation at 2000 rpm for 3 minute. Lysates were then incubated with 2 μg ERG antibody (Santa Cruz, C-17) at 4° C. for 4 hours with shaking prior to addition of 20 μl protein A/G agarose beads and incubated at 4° C. overnight. […] Samples were then analyzed by SDS-PAGE and Western blot analysis as described above."}, "ERG:DNA-PKcs interaction": {"target": "T1, ERG:DNA-PKcs interaction (Homo sapiens, UniProt P11308)", "T1 sequence (P11308 33-479 limits assumed)": "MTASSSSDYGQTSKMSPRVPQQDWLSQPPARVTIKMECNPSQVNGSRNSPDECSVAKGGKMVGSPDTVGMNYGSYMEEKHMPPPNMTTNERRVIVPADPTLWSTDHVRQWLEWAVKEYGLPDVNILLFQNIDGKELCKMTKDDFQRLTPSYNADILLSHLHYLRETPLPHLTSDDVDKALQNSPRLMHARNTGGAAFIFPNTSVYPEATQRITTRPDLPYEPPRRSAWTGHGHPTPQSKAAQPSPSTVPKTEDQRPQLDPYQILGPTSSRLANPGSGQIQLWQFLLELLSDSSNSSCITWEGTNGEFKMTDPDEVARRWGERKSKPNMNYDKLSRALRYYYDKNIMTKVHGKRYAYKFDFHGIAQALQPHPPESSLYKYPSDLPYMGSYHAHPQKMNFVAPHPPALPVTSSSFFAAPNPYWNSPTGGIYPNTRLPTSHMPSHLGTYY", "conditions": "mouse, in vivo, 25 mg/kg", "method": "as §2\nVCaP xenografted mice were injected with a single dose of 25 mg/kg biotinylated RI-EIP1 and serum and tumors were collected at varying time intervals as indicated."}, "[5]": {"test_system": "VCaP (ERG fusion-positive) xenografts", "experiment": "VCaP xenograft mouse model, tumor growth", "method": "as §1\nAthymic Nude-Foxnlnu male mice were procured from Harlan Laboratories, Inc. (Indianapolis, Ind.). VCaP (2×10^6 cells) or PC3 (5×10^5 cells) were resuspended in 100 μl of saline with 50% Matrigel (BD Biosciences, Becton Drive, NJ) and implanted subcutaneously into the flank regions on both sides of the mice. Mice were anesthetized using a cocktail of xylazine (80-120 mg/kg, IP) and ketamine (10 mg/kg, IP) for chemical restraint before tumor cells implantation. For short term assays, all tumors were staged for three weeks before starting peptidomimetic treatment. After week 3 (VCaP cells) or 12 days (PC3 cells), mice (10 per treatment group) were treated with peptidomimetics (25 mg/kg or 10 mg/kg as indicated, IP) daily five times a week.\nTumor growth was recorded every three days using digital calipers and tumor volumes were calculated using the formula (π/6) (L×W2), where L=length of tumor and W=width. Body weight was monitored weekly over the course of the study. At the end of the xenograft studies, mice were anaesthetized and blood was collected by cardiac puncture and tumors were preserved for further biochemical and immunofluorescence analysis. […] Survival analysis was carried out using the GraphPad Prism 4.0 software (GraphPad Software, San Diego, Calif.). Statistical significance for Kaplan-Meier analysis was determined by the log-rank (Mantel-Cox) test. All procedures involving mice were approved by the University Committee on Use and Care of Animals (UCUCA) at the University of Michigan and conform to their relevant regulatory standards."}},
  "note": "Where a SMILES comes first, the peptide text is derived from it. [ ]: non-standard residue; d: D form.",
  "data": [
    {"smiles": "CC(C)C[C@@H](NC(=O)[C@H]1CCCN1C(=O)[C@H]1CCCN1C(=O)[C@@H](Cc1ccc(O)cc1)NC(=O)[C@@H](CC(C)C)NC(=O)[C@@H](Cc1ccccc1)NC(=O)[C@H](NC(=O)CNC(=O)CNC(=O)[C@@H](CCCNC(=N)N)NC(=O)[C@@H](CCCCN)NC(=O)[C@@H](CCCCN)NC(=O)[C@@H](CCCNC(=N)N)NC(=O)[C@@H](CCCNC(=N)N)NC(=O)[C@@H](CCC(N)=O)NC(=O)[C@@H](CCCNC(=N)N)NC(=O)[C@@H](CCCNC(=N)N)NC(=O)[C@@H](CCCNC(=N)N)NC(=O)CN)[C@H](C)O)C(=O)O", "note": "[RI-EIP1] (H-G[dR][dR][dR][dQ][dR][dR][dK][dK][dR]GG[dT][dF][dL][dY][dP][dP][dL]-OH)", "values": [
      {"measurement": "gene expression of ERG targets in VCaP tumors", "setting": "[1]", "result": "inhibited"},
      {"measurement": "tumor size of PC3 xenografts", "setting": "[2]", "result": "no difference in tumor size"},
      {"measurement": "depletion of ERG among 3020 proteins identified", "setting": "VCaP cells [3]", "result": "most significantly depleted"},
      {"measurement": "ERG-mediated invasion and intravasation", "setting": "VCaP cells [4]", "result": "dramatically blocked"},
      {"measurement": "ERG protein in VCaP xenograft tumors", "setting": "ERG protein", "result": "substantial degradation"},
      {"measurement": "ERG:DNA-PKcs interaction in VCaP xenograft tumors", "setting": "ERG:DNA-PKcs interaction", "result": "blocked"},
      {"measurement": "recurrences after additional 30 days without therapy", "setting": "[5]; 25 mg/kg group", "result": "no recurrences were observed"},
      {"measurement": "tumors completely regressed with no palpable tumor", "setting": "[5]; 25 mg/kg, day 18", "result": 10, "unit": "%"},
      {"measurement": "tumors with no signs of recurrence", "setting": "[5]; 25 mg/kg, extended treatment, day 30", "result": 35, "unit": "%"},
      {"measurement": "tumor growth, additional VCaP xenograft studies", "setting": "[5]; 1, 5 and 25 mg/kg, effect at 25 mg/kg relative to control", "result": "significant suppression"},
      {"measurement": "VCaP tumor growth", "setting": "[5]; 10 or 25 mg/kg per day, day 18, relative to mutant peptide, p<0.01", "result": "dose-dependent reduction"}
    ]}
  ]
}
